Assay results reported in patent publication US6737383B1, “Herbicidal oxadiazolidines” (priority 1999, dated 2004).

How the values were obtained:
annual bluegrass = assay: Test E annual bluegrass; type: in vivo, Poa annua; conditions: Postemergence
In short: (§1)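 Postemergence: 60:40 sandy loam/greenhouse potting mix, 1- to 4-leaf stage. Formulation: solvent plus surfactant. Assessment: visual comparison with untreated controls at ~21–28 days.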

downy brome = assay: Test E downy brome; type: in vivo, Bromus tectorum; conditions: Postemergence; for Plant response rating, Downy brome: 0 to 100 scale
In short: as §1

galium = assay: Test E galium; type: in vivo, Galium aparine; conditions: Postemergence
Protocol: […] A mixture of sandy loam soil and greenhouse potting mix in a 60:40 ratio was used for the postemergence test.
(§2) Plantings of these crops and weed species were adjusted to produce plants of appropriate size for the postemergence test. All plant species were grown using normal greenhouse practices. Crop and weed species include annual bluegrass (Poa annua), blackgrass (Alopecurus myosuroides), black nightshade (Solanum nigra), chickweed (Stellaria media), common poppy (Papaver rhoeas), deadnettle (Lamium amplexicaule), downy brome (Bromus tectorum), field violet (Viola arvensis), galium (Galium aparine), green foxtail (Setaria viridis), Italian ryegrass (Lolium multiflorum), jointed goatgrass (Aegilops cylindrica), kochia (Kochia scoparia), lambsquarters (Chenopodium album), littleseed canarygrass (Phalaris minor), rape (Brassica napus), redroot pigweed (Amaranthus retroflexus), Russian thistle (Salsola kali), scentless chamomile (Matricaria inodora), spring barley (Hordeum vulgare), sugar beet (Beta vulgaris), sunflower (Helianthus annuus), ivyleaf speedwell (Veronica hederaefolia), spring wheat (Triticum aestivum), winter wheat (Triticum aestivum), wild buckwheat (Polygonum convolvulus), wild mustard (Sinapis arvensis), wild oat (Avena fatua), windgrass (Apera spica-venti) and winter barley (Hordeum vulgare).
(§3) Treated plants and untreated controls were maintained in a greenhouse for approximately 21 to 28 days, after which all treated plants were compared to untreated controls and visually evaluated. […] A dash response (-) means no test result.

green foxtail = assay: Test E green foxtail; type: in vivo, Setaria viridis; conditions: Postemergence
Protocol: (§4) Compounds evaluated in this test were formulated in a non-phytotoxic solvent mixture which included a surfactant and applied to plants that were in the 1- to 4-leaf stage (postemergence application). A mixture of sandy loam soil and greenhouse potting mix in a 60:40 ratio was used for the postemergence test.
as §2, §3

jointed goatgrass = assay: Test E jointed goatgrass; type: in vivo, Aegilops cylindrica; conditions: Postemergence
In short: as §1

kochia [1] = assay: Test E kochia; type: in vivo, Kochia scoparia; conditions: Postemergence
Protocol: as §4, §2, §3

lambsquarters [2] = assay: Test E lambsquarters; type: in vivo, Chenopodium album; conditions: Postemergence
Protocol: as §4, §2, §3

spring barley [3] = assay: Test E spring barley; type: in vivo, Hordeum vulgare; conditions: Postemergence
In short: as §1

kochia [4] = assay: Test E kochia; type: in vivo, Kochia scoparia; conditions: Preemergence
lambsquarters [5] = assay: Test E lambsquarters; type: in vivo, Chenopodium album; conditions: Preemergence
littleseed canarygrass = assay: Test E littleseed canarygrass; type: in vivo, Phalaris minor; conditions: Preemergence
rape = assay: Test E rape; type: in vivo, Brassica napus; conditions: Preemergence
spring barley [6] = assay: Test E spring barley; type: in vivo, Hordeum vulgare; conditions: Preemergence
sunflower = assay: Test E sunflower; type: in vivo, Helianthus annuus; conditions: Preemergence
wild buckwheat = assay: Test E wild buckwheat; type: in vivo, Polygonum convolvulus; conditions: Preemergence
wild mustard = assay: Test E wild mustard; type: in vivo, Sinapis arvensis; conditions: Preemergence
bermuda-grass = assay: Test D bermudagrass; type: in vivo, Cynodon dactylon; conditions: Postemergence, 0 to 100 scale
common ragweed = assay: Test D common ragweed; type: in vivo, Ambrosia elatior; conditions: Postemergence, 0 to 100 scale
common groundsel = assay: Test D common groundsel; type: in vivo, Senecio vulgaris; conditions: Postemergence, 0 to 100 scale
dallisgrass = assay: Test D dallisgrass; type: in vivo, Paspalum dilatatum; conditions: Postemergence, 0 to 100 scale
Johnson grass = assay: Test D Johnson grass; type: in vivo, Sorghum halepense; conditions: Postemergence, 0 to 100 scale
sourgrass = assay: Test D sourgrass; type: in vivo, Trichachne insularis; conditions: Postemergence, 0 to 100 scale
[7] = Rate 250 g/ha, 0 to 100 scale (0 no effect, 100 complete control)
[8] = Rate 500 g/ha, 0 to 100 scale, 0 no effect, 100 complete control
[9] = Rate 500 g/ha, 0 no effect, 100 complete control
[10] = Rate 125 g/ha, 0 to 100 scale (0 no effect, 100 complete control)
[11] = Rate 500 g/ha, 0 to 100 scale where 0 is no effect and 100 is complete control
[12] = Rate 250 g/ha, 0 to 100 scale where 0 is no effect and 100 is complete control
[13] = Rate 64 g/ha, 0 no injury, 100 complete control
[14] = Rate 125 g/ha, 0 no injury, 100 complete control

CC(C)N(C(=O)n1oc(=O)n(C(C)C)c1=O)c1ccc(F)cc1F [Compound 109]
Plant response rating, Annual bluegras (annual bluegrass; Rate 125 g/ha, 0 to 100 scale): 10 | Plant response rating, Annual bluegras (annual bluegrass; [7]): 10 | Plant response rating, Annual bluegras (annual bluegrass; [8]): 50 | Plant response rating, Downy brome (downy brome; Rate 125 g/ha): 0 | Plant response rating, Downy brortie (downy brome; [7]): 0 | Plant response rating, Downy brome (downy brome; [9]): 0 | Plant response rating, Galium (galium; Rate 125 g/ha, 0 to 100 scale): 50 | Plant response rating, Galium (galium; [7]): 30 | Plant response rating, Galium (galium; [8]): 50 | Plant response rating, Green foxtail (green foxtail; Rate 125 g/ha, 0 to 100 scale): 30 | Plant response rating, Green foxtail (green foxtail; [7]): 65 | Plant response rating, Green foxtail (green foxtail; [8]): 80 | Plant response rating, Jointed goatgra (jointed goatgrass; Rate 125 g/ha, 0 to 100 scale): 10 | Plant response rating, Jointed goatgra (jointed goatgrass; [7]): 5 | Plant response rating, Jointed goatgra (jointed goatgrass; [8]): 30 | Plant response rating, Kochia (kochia [1]; Rate 125 g/ha, 0 to 100 scale): 30 | Plant response rating, Kochia (kochia [1]; [7]): 30 | Plant response rating, Kochia (kochia [1]; [8]): 50 | Plant response rating Lambsquarters (lambsquarters [2]; Rate 125 g/ha, 0 to 100 scale): 20 | Plant response rating Lambsquarters (lambsquarters [2]; [7]): 30 | Plant response rating Lambsquarters (lambsquarters [2]; [8]): 30 | Plant response rating, Spring Barley (spring barley [3]; Rate 125 g/ha, 0 to 100 scale): 30 | Plant response rating, Spring Barley (spring barley [3]; [7]): 20 | Plant response rating, Spring Barley (spring barley [3]; [8]): 20 | Plant response rating, Kochia (kochia [4]; [10]): 0 | Plant response rating, Kochia (kochia [4]; Rate 250 g/ha, 0 to 100 scale): 50 | Plant response rating, Kochia (kochia [4]; [11]): 100 | Plant response rating Lambsquarters (lambsquarters [5]; [10]): 60 | Plant response rating Lambsquarters (lambsquarters [5]; Rate 250 g/ha, 0 to 100 scale): 100 | Plant response rating Lambsquarters (lambsquarters [5]; [11]): 100 | Plant response rating, LS canarygrass (littleseed canarygrass; [10]): 50 | Plant response rating, LS canarygrass (littleseed canarygrass; Rate 250 g/ha, 0 to 100 scale): 60 | Plant response rating, LS canarygrass (littleseed canarygrass; [11]): 50 | Plant response rating, Rape (rape; [10]): 10 | Plant response rating, Rape (rape; Rate 250 g/ha, 0 to 100 scale): 55 | Plant response rating, Rape (rape; [11]): 65 | Plant response rating, Spring Barley (spring barley [6]; [10]): 5 | Plant response rating, Spring Barley (spring barley [6]; Rate 250 g/ha, 0 to 100 scale): 20 | Plant response rating, Spring Barley (spring barley [6]; [11]): 50 | Plant response rating, Sunflower (sunflower; [10]): 0 | Plant response rating, Sunflower (sunflower; Rate 250 g/ha, 0 to 100 scale): 10 | Plant response rating, Sunflower (sunflower; [11]): 5 | Plant response rating, Wild buckwheat (wild buckwheat; [10]): 20 | Plant response rating, Wild buckwheat (wild buckwheat; Rate 250 g/ha, 0 to 100 scale): 85 | Plant response rating, Wild buckwheat (wild buckwheat; [11]): 90 | Plant response rating, Wild mustard (wild mustard; [10]): 30 | Plant response rating, Wild mustard (wild mustard; Rate 250 g/ha, 0 to 100 scale): 85 | Plant response rating, Wild mustard (wild mustard; [11]): 80

C=CCn1c(=O)on(C(=O)N(c2ccc(F)cc2)C(C)C)c1=O [Compound 146]
Plant response rating, Annual bluegras (annual bluegrass; Rate 62 g/ha, 0 to 100 scale): 85 | Plant response rating, Annual bluegras (annual bluegrass; Rate 125 g/ha, 0 to 100 scale): 10 | Plant response rating, Annual bluegras (annual bluegrass; [8]): 65 | Annual bluegras plant response rating (annual bluegrass; [12]): 10 | Plant response rating, Downy brome (downy brome; Rate 62 g/ha): 55 | Plant response rating, Downy brome (downy brome; Rate 125 g/ha): 10 | Plant response rating, Downy brome (downy brome; [9]): 5 | Downy brome plant response rating (downy brome; [12]): 0 | Plant response rating, Galium (galium; Rate 62 g/ha, 0 to 100 scale): 50 | Plant response rating, Galium (galium; Rate 125 g/ha, 0 to 100 scale): 0 | Plant response rating, Galium (galium; [8]): 60 | Galium plant response rating (galium; [12]): 15 | Plant response rating, Green foxtail (green foxtail; Rate 62 g/ha, 0 to 100 scale): 70 | Plant response rating, Green foxtail (green foxtail; Rate 125 g/ha, 0 to 100 scale): 20 | Plant response rating, Green foxtail (green foxtail; [8]): 80 | Green foxtail plant response rating (green foxtail; [12]): 70 | Plant response rating, Jointed goatgra (jointed goatgrass; Rate 62 g/ha, 0 to 100 scale): 55 | Plant response rating, Jointed goatgra (jointed goatgrass; Rate 125 g/ha, 0 to 100 scale): 15 | Plant response rating, Jointed goatgra (jointed goatgrass; [8]): 40 | Jointed goatgra plant response rating (jointed goatgrass; [12]): 10 | Plant response rating, Kochia (kochia [1]; Rate 62 g/ha, 0 to 100 scale): 30 | Plant response rating, Kochia (kochia [1]; Rate 125 g/ha, 0 to 100 scale): 10 | Plant response rating, Kochia (kochia [1]; [8]): 40 | Kochia plant response rating (kochia [1]; [12]): 10 | Plant response rating Lambsquarters (lambsquarters [2]; Rate 62 g/ha, 0 to 100 scale): 50 | Plant response rating Lambsquarters (lambsquarters [2]; Rate 125 g/ha, 0 to 100 scale): 20 | Plant response rating Lambsquarters (lambsquarters [2]; [8]): 50 | Lambsquarters plant response rating (lambsquarters [2]; [12]): 10 | Plant response rating, Spring Barley (spring barley [3]; Rate 62 g/ha, 0 to 100 scale): 20 | Plant response rating, Spring Barley (spring barley [3]; Rate 125 g/ha, 0 to 100 scale): 10 | Plant response rating, Spring Barley (spring barley [3]; [8]): 20 | Spring Barley plant response rating (spring barley [3]; [12]): 10 | Plant response rating, Bermudagrass (bermuda-grass; [13]): 0 | Plant response rating, Bermudagrass (bermuda-grass; [14]): 0 | Plant response rating, Bermudagrass (bermuda-grass; Rate 250 g/ha): 0 | Plant response rating, Bermudagrass (bermuda-grass; Rate 500 g/ha): 35 | Plant response rating, C. ragweed (common ragweed; [13]): 0 | Plant response rating, C. ragweed (common ragweed; [14]): 0 | Plant response rating, C. ragweed (common ragweed; Rate 250 g/ha): 30 | Plant response rating, C. ragweed (common ragweed; Rate 500 g/ha): 40 | Plant response rating, Com. groundsel (common groundsel; [13]): 0 | Plant response rating, Com. groundsel (common groundsel; [14]): 0 | Plant response rating, Com. groundsel (common groundsel; Rate 250 g/ha): 0 | Plant response rating, Com. groundsel (common groundsel; Rate 500 g/ha): 0 | Plant response rating, Dallisgrass (dallisgrass; [14]): 30 | Plant response rating, Dallisgrass (dallisgrass; Rate 250 g/ha): 60 | Plant response rating, Dallisgrass (dallisgrass; Rate 500 g/ha): 80 | Plant response rating Johnsongrass (Johnson grass; [13]): 20 | Plant response rating Johnsongrass (Johnson grass; [14]): 35 | Plant response rating Johnsongrass (Johnson grass; Rate 250 g/ha): 50 | Plant response rating Johnsongrass (Johnson grass; Rate 500 g/ha): 65 | Sourgrass plant response rating (sourgrass; [13]): 50 | Plant response rating, Sourgrass (sourgrass; [14]): 50 | Sourgrass plant response rating (sourgrass; [14]): 30 | Plant response rating, Sourgrass (sourgrass; Rate 250 g/ha): 80 | Plant response rating, Sourgrass (sourgrass; Rate 500 g/ha): 80 | Plant response rating, Kochia (kochia [4]; [10]): 0 | Kochia plant response rating (0 to 100 scale) (kochia [4]; Rate 250 g/ha): 50 | Plant response rating, Kochia (kochia [4]; [11]): 75 | Plant response rating Lambsquarters (lambsquarters [5]; [10]): 100 | Lambsquarters plant response rating (0 to 100 scale) (lambsquarters [5]; Rate 250 g/ha): 100 | Plant response rating Lambsquarters (lambsquarters [5]; [11]): 100 | Plant response rating, LS canarygrass (littleseed canarygrass; [10]): 40 | LS canarygrass plant response rating (0 to 100 scale) (littleseed canarygrass; Rate 250 g/ha): 75 | Plant response rating, LS canarygrass (littleseed canarygrass; [11]): 85 | Plant response rating, Rape (rape; [10]): 60 | Rape plant response rating (0 to 100 scale) (rape; Rate 250 g/ha): 80 | Plant response rating, Rape (rape; [11]): 60 | Plant response rating, Spring Barley (spring barley [6]; [10]): 20 | Spring Barley plant response rating (0 to 100 scale) (spring barley [6]; Rate 250 g/ha): 10 | Plant response rating, Spring Barley (spring barley [6]; [11]): 90 | Plant response rating, Sunflower (sunflower; [10]): 20 | Sunflower plant response rating (0 to 100 scale) (sunflower; Rate 250 g/ha): 30 | Plant response rating, Sunflower (sunflower; [11]): 30 | Plant response rating, Wild buckwheat (wild buckwheat; [10]): 70 | Wild buckwheat plant response rating (0 to 100 scale) (wild buckwheat; Rate 250 g/ha): 85 | Plant response rating, Wild buckwheat (wild buckwheat; [11]): 100 | Plant response rating, Wild mustard (wild mustard; [10]): 60 | Wild mustard plant response rating (0 to 100 scale) (wild mustard; Rate 250 g/ha): 95 | Plant response rating, Wild mustard (wild mustard; [11]): 100
